The values that follow come from patent US9340590B2 (priority 2011, dated 2016).

Common to all, as to assay: cell-based
For one test, the target named is hNav1.5 (Homo sapiens, UniProt Q14524). The note with it: IonWorks Quattro, use-dependent block, hNav1.5; read-out: IWQ Use Nav1.5.
The target in the next test is hNav1.7 (Homo sapiens, UniProt Q15858). In kind it is cell-based. The note with it: IonWorks Quattro, use-dependent block, hNav1.7; read-out: IWQ Use Nav1.7.
A further test deals with hNav1.3 (Homo sapiens, UniProt Q9NY46). The note with it: IonWorks Quattro, use-dependent block, hNav1.3; read-out: IWQ Use Nav1.3.
Chain of hNav1.3 (Q9NY46 whole entry, looked up): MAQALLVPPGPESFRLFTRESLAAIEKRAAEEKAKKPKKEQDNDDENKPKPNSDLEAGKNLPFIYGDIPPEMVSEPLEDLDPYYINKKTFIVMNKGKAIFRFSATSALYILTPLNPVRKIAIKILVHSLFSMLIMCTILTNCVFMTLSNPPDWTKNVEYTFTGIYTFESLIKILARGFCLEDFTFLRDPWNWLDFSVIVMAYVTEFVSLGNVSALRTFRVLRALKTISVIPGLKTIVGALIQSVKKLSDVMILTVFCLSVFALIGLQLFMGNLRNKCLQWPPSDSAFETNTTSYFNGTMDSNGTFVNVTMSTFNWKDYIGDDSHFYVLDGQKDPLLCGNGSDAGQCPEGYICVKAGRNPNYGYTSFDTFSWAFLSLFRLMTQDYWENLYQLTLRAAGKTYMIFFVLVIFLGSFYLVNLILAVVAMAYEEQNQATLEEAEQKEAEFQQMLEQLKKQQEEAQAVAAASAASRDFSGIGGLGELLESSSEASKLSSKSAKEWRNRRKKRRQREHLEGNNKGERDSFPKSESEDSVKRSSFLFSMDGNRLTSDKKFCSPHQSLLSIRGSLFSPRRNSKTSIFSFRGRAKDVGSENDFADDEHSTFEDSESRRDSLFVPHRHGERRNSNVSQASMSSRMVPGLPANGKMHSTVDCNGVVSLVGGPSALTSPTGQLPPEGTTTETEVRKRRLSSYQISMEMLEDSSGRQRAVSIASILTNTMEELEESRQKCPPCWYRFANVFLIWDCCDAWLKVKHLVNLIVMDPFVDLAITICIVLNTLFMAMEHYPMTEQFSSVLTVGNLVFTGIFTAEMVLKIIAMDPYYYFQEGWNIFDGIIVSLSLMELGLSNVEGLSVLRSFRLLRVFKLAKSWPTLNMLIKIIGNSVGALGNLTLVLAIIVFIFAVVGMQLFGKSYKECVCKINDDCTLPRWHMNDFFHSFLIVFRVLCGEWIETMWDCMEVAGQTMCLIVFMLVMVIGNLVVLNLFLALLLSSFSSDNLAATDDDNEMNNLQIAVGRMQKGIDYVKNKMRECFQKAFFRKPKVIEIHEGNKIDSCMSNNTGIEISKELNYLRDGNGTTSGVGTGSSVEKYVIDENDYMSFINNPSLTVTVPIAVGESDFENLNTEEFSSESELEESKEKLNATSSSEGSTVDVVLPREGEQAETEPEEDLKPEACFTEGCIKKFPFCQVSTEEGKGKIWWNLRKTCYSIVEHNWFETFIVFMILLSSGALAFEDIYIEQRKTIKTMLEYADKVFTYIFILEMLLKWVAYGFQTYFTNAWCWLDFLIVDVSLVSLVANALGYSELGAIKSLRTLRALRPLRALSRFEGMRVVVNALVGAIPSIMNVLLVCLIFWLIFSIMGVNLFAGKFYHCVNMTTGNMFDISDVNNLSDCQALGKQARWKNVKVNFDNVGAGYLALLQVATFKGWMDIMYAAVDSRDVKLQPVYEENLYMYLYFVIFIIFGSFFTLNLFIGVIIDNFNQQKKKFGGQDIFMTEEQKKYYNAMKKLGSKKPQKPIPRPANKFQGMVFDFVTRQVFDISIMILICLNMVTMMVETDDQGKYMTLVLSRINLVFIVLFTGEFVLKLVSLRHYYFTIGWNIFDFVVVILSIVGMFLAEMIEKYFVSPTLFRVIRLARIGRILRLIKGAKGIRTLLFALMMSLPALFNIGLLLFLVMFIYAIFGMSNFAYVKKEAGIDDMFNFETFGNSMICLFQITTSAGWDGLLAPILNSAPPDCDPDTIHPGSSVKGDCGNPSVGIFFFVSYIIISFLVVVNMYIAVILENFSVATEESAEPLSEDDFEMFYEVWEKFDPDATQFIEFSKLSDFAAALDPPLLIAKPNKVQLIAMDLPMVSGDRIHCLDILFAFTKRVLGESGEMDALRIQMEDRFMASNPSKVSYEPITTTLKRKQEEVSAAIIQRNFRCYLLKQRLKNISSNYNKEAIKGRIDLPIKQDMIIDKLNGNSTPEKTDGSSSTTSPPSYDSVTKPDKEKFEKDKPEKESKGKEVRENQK

Positions of bridges follow the written chain, without caps; N, C: chain ends. Non-standard residues stand in square brackets, D forms with d. Residues, ends and D or L forms follow the SMILES beside them. Phe(4-guanidino) = N=C(N)Nc1ccc(C[C@H](N)C(=O)O)cc1; Cit = NC(=O)NCCC[C@H](N)C(=O)O; Dab = NCC[C@H](N)C(=O)O

Chain of hNav1.7 (Q15858 whole entry, looked up): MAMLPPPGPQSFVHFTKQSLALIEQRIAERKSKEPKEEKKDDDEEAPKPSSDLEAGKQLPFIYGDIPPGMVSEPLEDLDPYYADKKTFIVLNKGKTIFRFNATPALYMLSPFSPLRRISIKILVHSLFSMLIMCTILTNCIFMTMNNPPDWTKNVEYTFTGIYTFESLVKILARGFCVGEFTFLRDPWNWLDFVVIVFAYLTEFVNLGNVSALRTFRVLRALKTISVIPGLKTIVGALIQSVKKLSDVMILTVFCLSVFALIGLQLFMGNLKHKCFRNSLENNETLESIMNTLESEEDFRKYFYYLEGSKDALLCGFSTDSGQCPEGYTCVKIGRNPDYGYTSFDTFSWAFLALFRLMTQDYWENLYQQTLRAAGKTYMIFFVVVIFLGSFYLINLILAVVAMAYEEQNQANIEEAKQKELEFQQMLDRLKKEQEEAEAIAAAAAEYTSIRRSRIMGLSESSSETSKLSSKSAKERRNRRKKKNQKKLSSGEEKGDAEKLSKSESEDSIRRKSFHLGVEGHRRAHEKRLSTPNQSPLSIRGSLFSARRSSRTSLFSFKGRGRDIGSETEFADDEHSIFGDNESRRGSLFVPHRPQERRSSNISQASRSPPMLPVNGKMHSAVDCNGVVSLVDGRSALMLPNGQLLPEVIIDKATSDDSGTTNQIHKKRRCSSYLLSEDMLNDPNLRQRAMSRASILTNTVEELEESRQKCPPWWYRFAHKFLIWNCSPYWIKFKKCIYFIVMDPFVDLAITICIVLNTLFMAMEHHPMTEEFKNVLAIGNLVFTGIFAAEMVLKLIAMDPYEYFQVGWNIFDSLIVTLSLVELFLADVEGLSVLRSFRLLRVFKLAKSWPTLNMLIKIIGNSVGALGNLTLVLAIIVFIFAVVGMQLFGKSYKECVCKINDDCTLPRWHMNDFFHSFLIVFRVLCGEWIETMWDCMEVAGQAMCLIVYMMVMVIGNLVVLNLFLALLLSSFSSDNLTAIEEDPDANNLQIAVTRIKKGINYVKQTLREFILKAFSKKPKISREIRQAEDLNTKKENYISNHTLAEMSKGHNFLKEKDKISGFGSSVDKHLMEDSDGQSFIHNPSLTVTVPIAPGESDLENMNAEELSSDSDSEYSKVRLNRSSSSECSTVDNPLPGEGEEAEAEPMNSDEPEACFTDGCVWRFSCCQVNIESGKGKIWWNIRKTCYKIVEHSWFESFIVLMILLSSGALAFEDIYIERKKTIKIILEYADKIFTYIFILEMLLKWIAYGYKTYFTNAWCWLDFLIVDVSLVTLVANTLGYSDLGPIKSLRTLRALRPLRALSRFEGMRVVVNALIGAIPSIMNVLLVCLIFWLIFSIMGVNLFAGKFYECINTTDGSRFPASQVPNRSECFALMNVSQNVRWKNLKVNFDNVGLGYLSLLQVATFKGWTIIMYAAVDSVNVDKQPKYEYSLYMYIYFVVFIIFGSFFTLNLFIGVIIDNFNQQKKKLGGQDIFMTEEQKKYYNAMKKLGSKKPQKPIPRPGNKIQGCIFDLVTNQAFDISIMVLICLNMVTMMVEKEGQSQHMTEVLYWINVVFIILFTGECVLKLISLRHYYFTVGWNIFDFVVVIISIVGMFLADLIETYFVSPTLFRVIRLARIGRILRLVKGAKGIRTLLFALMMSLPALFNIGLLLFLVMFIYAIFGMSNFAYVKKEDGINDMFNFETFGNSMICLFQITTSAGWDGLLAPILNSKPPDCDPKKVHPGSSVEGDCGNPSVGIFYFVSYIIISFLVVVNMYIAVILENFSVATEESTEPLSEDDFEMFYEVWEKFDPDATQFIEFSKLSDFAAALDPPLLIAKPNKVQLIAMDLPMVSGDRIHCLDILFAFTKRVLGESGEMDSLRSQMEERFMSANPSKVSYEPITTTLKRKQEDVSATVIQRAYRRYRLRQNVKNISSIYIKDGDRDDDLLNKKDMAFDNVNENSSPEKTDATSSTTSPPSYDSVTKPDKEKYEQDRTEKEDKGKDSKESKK

On to `CC[C@H](C)[C@@H]1NC(=O)[C@@H]2CSSC[C@@H]3NC(=O)[C@H](C(C)C)NC(=O)[C@H](CC(C)C)NC(=O)[C@H](CC(N)=O)NC(=O)[C@@H]4CCCN4C(=O)[C@H](CCCNC(=N)N)NC(=O)[C@H](CSSC[C@H](NC(=O)[C@@H](N)CC(=O)O)C(=O)N[C@@H](CC(C)C)C(=O)NCC(=O)N[C@@H](C)C(=O)N[C@@H](CCSC)C(=O)N[C@@H](CCCNC(=N)N)C(=O)N[C@@H](CCCCN)C(=O)N2)NC(=O)[C@H](CSSC[C@@H](C(=O)N[C@@H](CCCCN)C(=O)N[C@@H](Cc2ccc(O)cc2)C(=O)N[C@H](C(=O)N[C@@H](Cc2ccccc2)C(N)=O)C(C)C)NC(=O)[C@H](Cc2c[nH]c4ccccc24)NC(=O)[C@H](Cc2ccc(NC(=N)N)cc2)NC(=O)[C@H](Cc2c[nH]cn2)NC(=O)[C@H]([C@@H](C)O)NC(=O)[C@H](CCCNC(=N)N)NC(=O)[C@H](CO)NC3=O)NC(=O)[C@H](CCCCN)NC(=O)[C@H](CC(=O)O)NC(=O)[C@H](CC(N)=O)NC(=O)[C@H](CC(=O)O)NC(=O)[C@@H]2CCCN2C1=O` [compound 761] (H-DCLGAMRKCIPDNDKCCRPNLVCSRTH[Phe(4-guanidino)]WCKYVF-NH2; disulfide 2-17, 9-23, 16-30), for which the figures for the IC50 at hNav1.5, on hNav1.7 and on hNav1.3 were 26.9 µM, 160 nM and 630 nM, respectively.
For `CC[C@H](C)[C@@H]1NC(=O)[C@@H]2CSSC[C@@H]3NC(=O)[C@H](C(C)C)NC(=O)[C@H](CC(C)C)NC(=O)[C@H](CC(N)=O)NC(=O)[C@@H]4CCCN4C(=O)[C@H](CCCNC(=N)N)NC(=O)[C@H](CSSC[C@H](NC(=O)[C@@H](N)CC(=O)O)C(=O)N[C@@H](CC(C)C)C(=O)NCC(=O)N[C@@H](C)C(=O)N[C@@H](CCSC)C(=O)N[C@@H](CCCNC(=N)N)C(=O)N[C@@H](CCCCN)C(=O)N2)NC(=O)[C@H](CSSC[C@@H](C(=O)N[C@@H](CCCCN)C(=O)N[C@@H](Cc2ccc(O)cc2)C(=O)N[C@H](C(=O)N[C@@H](Cc2ccccc2)C(N)=O)C(C)C)NC(=O)[C@H](Cc2c[nH]c4ccccc24)NC(=O)[C@H](CCN)NC(=O)[C@H](Cc2c[nH]cn2)NC(=O)[C@H]([C@@H](C)O)NC(=O)[C@H](CCCNC(=N)N)NC(=O)[C@H](CO)NC3=O)NC(=O)[C@H](CCCCN)NC(=O)[C@H](CC(=O)O)NC(=O)[C@H](CC(N)=O)NC(=O)[C@H](CC(=O)O)NC(=O)[C@@H]2CCCN2C1=O` [compound 762] (H-DCLGAMRKCIPDNDKCCRPNLVCSRTH[Dab]WCKYVF-NH2; disulfide 2-17, 9-23, 16-30), the figures for the IC50 at hNav1.5, on hNav1.7 and on hNav1.3 were 23.3 µM, 320 nM and 860 nM, respectively.
Take `CC[C@H](C)[C@@H]1NC(=O)[C@@H]2CSSC[C@@H]3NC(=O)[C@H](C(C)C)NC(=O)[C@H](CC(C)C)NC(=O)[C@H](CC(N)=O)NC(=O)[C@@H]4CCCN4C(=O)[C@H](CCCNC(=N)N)NC(=O)[C@H](CSSC[C@H](NC(=O)[C@@H](N)CC(=O)O)C(=O)N[C@@H](CC(C)C)C(=O)NCC(=O)N[C@@H](C)C(=O)N[C@@H](CCSC)C(=O)N[C@@H](CCCNC(=N)N)C(=O)N[C@@H](CCCCN)C(=O)N2)NC(=O)[C@H](CSSC[C@@H](C(=O)N[C@@H](CCCCN)C(=O)N[C@@H](Cc2ccc(O)cc2)C(=O)N[C@H](C(=O)N[C@@H](Cc2ccccc2)C(N)=O)C(C)C)NC(=O)[C@H](Cc2c[nH]c4ccccc24)NC(=O)[C@H](Cc2ccccc2)NC(=O)[C@H](Cc2c[nH]cn2)NC(=O)[C@H]([C@@H](C)O)NC(=O)[C@H](CCCNC(=N)N)NC(=O)[C@H](CO)NC3=O)NC(=O)[C@H](CCCCN)NC(=O)[C@H](CC(=O)O)NC(=O)[C@H](CC(N)=O)NC(=O)[C@H](CC(=O)O)NC(=O)[C@@H]2CCCN2C1=O` [compound 764] (H-DCLGAMRKCIPDNDKCCRPNLVCSRTHFWCKYVF-NH2; disulfide 2-17, 9-23, 16-30): the IC50 at hNav1.5 was 41.4 µM; at hNav1.7 it was 4100 nM; on hNav1.3, over 5000 nM.
On to `CC[C@H](C)[C@@H]1NC(=O)[C@@H]2CSSC[C@@H]3NC(=O)[C@H](C(C)C)NC(=O)[C@H](CC(C)C)NC(=O)[C@H](CC(N)=O)NC(=O)[C@@H]4CCCN4C(=O)[C@H](CCCNC(=N)N)NC(=O)[C@H](CSSC[C@H](NC(=O)[C@@H](N)CC(=O)O)C(=O)N[C@@H](CC(C)C)C(=O)NCC(=O)N[C@@H](C)C(=O)N[C@@H](CCSC)C(=O)N[C@@H](CCCNC(=N)N)C(=O)N[C@@H](CCCCN)C(=O)N2)NC(=O)[C@H](CSSC[C@@H](C(=O)N[C@@H](CCCCN)C(=O)N[C@@H](Cc2ccc(O)cc2)C(=O)N[C@H](C(=O)N[C@@H](Cc2ccccc2)C(N)=O)C(C)C)NC(=O)[C@H](Cc2c[nH]c4ccccc24)NC(=O)[C@H](Cc2ccc(O)cc2)NC(=O)[C@H](Cc2c[nH]cn2)NC(=O)[C@H]([C@@H](C)O)NC(=O)[C@H](CCCNC(=N)N)NC(=O)[C@H](CO)NC3=O)NC(=O)[C@H](CCCCN)NC(=O)[C@H](CC(=O)O)NC(=O)[C@H](CC(N)=O)NC(=O)[C@H](CC(=O)O)NC(=O)[C@@H]2CCCN2C1=O` [compound 765] (H-DCLGAMRKCIPDNDKCCRPNLVCSRTHYWCKYVF-NH2; disulfide 2-17, 9-23, 16-30), for which the results for the IC50 on hNav1.5, on hNav1.7 and at hNav1.3 were 42 µM, 790 nM and 1400 nM, respectively.
For `CC[C@H](C)[C@@H]1NC(=O)[C@@H]2CSSC[C@@H]3NC(=O)[C@H](C(C)C)NC(=O)[C@H](CC(C)C)NC(=O)[C@H](CC(N)=O)NC(=O)[C@@H]4CCCN4C(=O)[C@H](CCCNC(=N)N)NC(=O)[C@H](CSSC[C@H](NC(=O)[C@@H](N)CC(=O)O)C(=O)N[C@@H](CC(C)C)C(=O)NCC(=O)N[C@@H](C)C(=O)N[C@@H](CCSC)C(=O)N[C@@H](CCCNC(=N)N)C(=O)N[C@@H](CCCCN)C(=O)N2)NC(=O)[C@H](CSSC[C@@H](C(=O)N[C@@H](CCCCN)C(=O)N[C@@H](Cc2ccc(O)cc2)C(=O)N[C@H](C(=O)N[C@@H](Cc2ccccc2)C(N)=O)C(C)C)NC(=O)[C@H](Cc2c[nH]c4ccccc24)NC(=O)[C@H](CC(C)C)NC(=O)[C@H](Cc2c[nH]cn2)NC(=O)[C@H]([C@@H](C)O)NC(=O)[C@H](CCCNC(=N)N)NC(=O)[C@H](CO)NC3=O)NC(=O)[C@H](CCCCN)NC(=O)[C@H](CC(=O)O)NC(=O)[C@H](CC(N)=O)NC(=O)[C@H](CC(=O)O)NC(=O)[C@@H]2CCCN2C1=O` [compound 766] (H-DCLGAMRKCIPDNDKCCRPNLVCSRTHLWCKYVF-NH2; disulfide 2-17, 9-23, 16-30), the IC50 at hNav1.5 is 49.3 µM; at hNav1.7, 1100 nM; on hNav1.3 it was 2700 nM.
`CC[C@H](C)[C@@H]1NC(=O)[C@@H]2CSSC[C@@H]3NC(=O)[C@H](C(C)C)NC(=O)[C@H](CC(C)C)NC(=O)[C@H](CC(N)=O)NC(=O)[C@@H]4CCCN4C(=O)[C@H](CCCNC(=N)N)NC(=O)[C@H](CSSC[C@H](NC(=O)[C@@H](N)CC(=O)O)C(=O)N[C@@H](CC(C)C)C(=O)NCC(=O)N[C@@H](C)C(=O)N[C@@H](CCSC)C(=O)N[C@@H](CCCNC(=N)N)C(=O)N[C@@H](CCCCN)C(=O)N2)NC(=O)[C@H](CSSC[C@@H](C(=O)N[C@@H](CCCCN)C(=O)N[C@@H](Cc2ccc(O)cc2)C(=O)N[C@H](C(=O)N[C@@H](Cc2ccccc2)C(N)=O)C(C)C)NC(=O)[C@H](Cc2c[nH]c4ccccc24)NC(=O)[C@H](CC(N)=O)NC(=O)[C@H](Cc2c[nH]cn2)NC(=O)[C@H]([C@@H](C)O)NC(=O)[C@H](CCCNC(=N)N)NC(=O)[C@H](CO)NC3=O)NC(=O)[C@H](CCCCN)NC(=O)[C@H](CC(=O)O)NC(=O)[C@H](CC(N)=O)NC(=O)[C@H](CC(=O)O)NC(=O)[C@@H]2CCCN2C1=O` [compound 767] (H-DCLGAMRKCIPDNDKCCRPNLVCSRTHNWCKYVF-NH2; disulfide 2-17, 9-23, 16-30): the results for the IC50 at hNav1.5, on hNav1.7 and at hNav1.3 were over 50 µM, 1700 nM and 3200 nM, respectively.
With `CC[C@H](C)[C@@H]1NC(=O)[C@@H]2CSSC[C@@H]3NC(=O)[C@H](C(C)C)NC(=O)[C@H](CC(C)C)NC(=O)[C@H](CC(N)=O)NC(=O)[C@@H]4CCCN4C(=O)[C@H](CCCNC(=N)N)NC(=O)[C@H](CSSC[C@H](NC(=O)[C@@H](N)CC(=O)O)C(=O)N[C@@H](CC(C)C)C(=O)NCC(=O)N[C@@H](C)C(=O)N[C@@H](CCSC)C(=O)N[C@@H](CCCNC(=N)N)C(=O)N[C@@H](CCCCN)C(=O)N2)NC(=O)[C@H](CSSC[C@@H](C(=O)N[C@@H](CCCCN)C(=O)N[C@@H](Cc2ccc(O)cc2)C(=O)N[C@H](C(=O)N[C@@H](Cc2ccccc2)C(N)=O)C(C)C)NC(=O)[C@H](Cc2c[nH]c4ccccc24)NC(=O)[C@H](CCCCN)NC(=O)[C@H](Cc2c[nH]cn2)NC(=O)[C@H]([C@@H](C)O)NC(=O)[C@H](CCCNC(N)=O)NC(=O)[C@H](CO)NC3=O)NC(=O)[C@H](CCCCN)NC(=O)[C@H](CC(=O)O)NC(=O)[C@H](CC(N)=O)NC(=O)[C@H](CC(=O)O)NC(=O)[C@@H]2CCCN2C1=O` [compound 768] (H-DCLGAMRKCIPDNDKCCRPNLVCS[Cit]THKWCKYVF-NH2; disulfide 2-17, 9-23, 16-30), the IC50 at hNav1.5 was 23.5 µM; on hNav1.7, 1800 nM; at hNav1.3 it was 3200 nM.
In the same order, the values of `CC[C@H](C)[C@@H]1NC(=O)[C@@H]2CSSC[C@@H]3NC(=O)[C@H](C(C)C)NC(=O)[C@H](CC(C)C)NC(=O)[C@H](CC(N)=O)NC(=O)[C@@H]4CCCN4C(=O)[C@H](CCCNC(=N)N)NC(=O)[C@H](CSSC[C@H](NC(=O)[C@@H](N)CC(=O)O)C(=O)N[C@@H](CC(C)C)C(=O)NCC(=O)N[C@@H](C)C(=O)N[C@@H](CCSC)C(=O)N[C@@H](CCCNC(=N)N)C(=O)N[C@@H](CCCCN)C(=O)N2)NC(=O)[C@H](CSSC[C@@H](C(=O)N[C@@H](CCCCN)C(=O)N[C@@H](Cc2ccc(O)cc2)C(=O)N[C@H](C(=O)N[C@@H](Cc2ccccc2)C(N)=O)C(C)C)NC(=O)[C@H](Cc2c[nH]c4ccccc24)NC(=O)[C@H](CC(=O)O)NC(=O)[C@H](Cc2c[nH]cn2)NC(=O)[C@H]([C@@H](C)O)NC(=O)[C@H](CCCNC(=N)N)NC(=O)[C@H](CO)NC3=O)NC(=O)[C@H](CCCCN)NC(=O)[C@H](CC(=O)O)NC(=O)[C@H](CC(N)=O)NC(=O)[C@H](CC(=O)O)NC(=O)[C@@H]2CCCN2C1=O` [compound 769] (H-DCLGAMRKCIPDNDKCCRPNLVCSRTHDWCKYVF-NH2; disulfide 2-17, 9-23, 16-30) are 39 µM, over 5000 nM and over 5000 nM.
